Test results as given in ChEMBL document CHEMBL1201862, “PubChem BioAssay data set” (2004).
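Protocol summary: plate cells (96-well), add compound at 5 concentrations, incubate 48 h, interpolate endpoints linearly. GI50 is the concentration that inhibits growth by half.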 Calls of active or inactive are those of the source. Cut-off read from the data, not from the text of the source: active = GI50 up to about 1.1 µM and inactive = higher.

Columns and labels:
Experiment in all cases: DTP human tumour cell line panel, 48 h
[1] = tested on: HOP-62
[2] = tested on: COLO 205
[3] = tested on: SK-MEL-2
[4] = tested on: HOP-18
[5] = tested on: UO-31
[6] = tested on: KM-20L2
[7] = tested on: SNB-19
[8] = tested on: SNB-75
[9] = tested on: TK-10
[10] = tested on: HCT-15
[11] = tested on: HCC 2998
[12] = tested on: SW-620
[13] = tested on: OVCAR-8
[14] = tested on: HCT-116
[15] = tested on: OVCAR-3
[16] = tested on: SK-MEL-28
[17] = tested on: UACC-257
[18] = tested on: CCRF-CEM
[19] = tested on: NCI-H226
[20] = tested on: LXFL 529
[21] = tested on: HT-29
[22] = tested on: MOLT-4
[23] = tested on: SF-268
[24] = tested on: RXF 393
[25] = tested on: NCI-H23
[26] = tested on: 786-0
[27] = tested on: UACC-62
[28] = tested on: SNB-78
[29] = tested on: HOP-92
[30] = tested on: OVCAR-5
[31] = tested on: M19-MEL
[32] = tested on: EKVX
[33] = tested on: ACHN
[34] = tested on: NCI-H460
[35] = tested on: RPMI-8226
[36] = tested on: SK-OV-3
[37] = tested on: SR
[38] = tested on: XF498
[39] = tested on: DMS-273
[40] = tested on: A549
[41] = tested on: Malme-3M
[42] = tested on: SN12C
[43] = tested on: LOX IMVI
[44] = tested on: HL-60
[45] = tested on: U-251
[46] = tested on: SF-295
[47] = tested on: SF-539
[48] = tested on: K562
[49] = tested on: KM12
[50] = tested on: OVCAR-4
[51] = tested on: SK-MEL-5
[52] = tested on: DLD-1
[53] = tested on: CAKI-1
[54] = tested on: NCI-H522
[55] = tested on: IGROV-1
[56] = tested on: DMS-114
[57] = tested on: M14

FC(F)(F)c1ccc2nc(NCc3ccccc3)c(-c3ccccc3)nc2c1
GI50 [1]: 52.1 µM (inactive) | GI50 [2]: 37.2 µM (inactive) | GI50 [3]: 32.9 µM (inactive) | GI50 [4]: 35.4 µM (inactive) | GI50 [5]: 25 µM (inactive) | GI50 [6]: 29.5 µM (inactive) | GI50 [7]: 46.2 µM (inactive) | GI50 [8]: 46.2 µM (inactive) | GI50 [9]: 29.6 µM (inactive) | GI50 [10]: 25.6 µM | GI50 [11]: 29.9 µM (inactive) | GI50 [12]: 49.4 µM (inactive) | GI50 [13]: 86.3 µM (inactive) | GI50 [14]: 29 µM (inactive) | GI50 [15]: 27.6 µM (inactive) | GI50 [16]: 84.9 µM (inactive) | GI50 [17]: 28.1 µM (inactive) | GI50 [18]: 37.2 µM (inactive) | GI50 [19]: 37.8 µM (inactive) | GI50 [20]: 43.3 µM (inactive) | GI50 [21]: 36 µM (inactive) | GI50 [22]: 24.7 µM (inactive) | GI50 [23]: 48.1 µM (inactive) | GI50 [24]: 20.4 µM (inactive) | GI50 [25]: 53.7 µM (inactive) | GI50 [26]: 20.3 µM (inactive) | GI50 [27]: 39 µM (inactive) | GI50 [28]: 38.9 µM (inactive) | GI50 [29]: 0.521 µM (active) | GI50 [30]: 90.2 µM (inactive) | GI50 [31]: 32.1 µM (inactive) | GI50 [32]: 62.2 µM (inactive) | GI50 [33]: 33.2 µM (inactive) | GI50 [34]: 41 µM (inactive) | GI50 [35]: 36.4 µM (inactive) | GI50 [36]: 38.4 µM (inactive) | GI50 [37]: 24.9 µM (inactive) | GI50 [38]: 15.1 µM (inactive) | GI50 [39]: 35.2 µM (inactive) | GI50 [40]: 26.9 µM (inactive) | GI50 [41]: 25.4 µM (inactive) | GI50 [42]: 36.6 µM (inactive) | GI50 [43]: 26.3 µM (inactive) | GI50 [44]: 19.3 µM (inactive) | GI50 [45]: 21 µM (inactive) | GI50 [46]: 36 µM (inactive) | GI50 [47]: 30.2 µM (inactive)

COc1cc2c(cc1OC)C(=O)C(C1=C(SC(=N)N)C(=O)c3cc(OC)c(OC)cc31)C2 (stereo unspecified)
GI50 [1]: 71.4 µM (inactive) | GI50 [48]: > 100 µM (inactive) | GI50 [2]: > 100 µM (inactive) | GI50 [3]: > 100 µM (inactive) | GI50 [5]: > 100 µM (inactive) | GI50 [6]: > 100 µM (inactive) | GI50 [7]: > 100 µM (inactive) | GI50 [8]: > 100 µM (inactive) | GI50 [10]: > 100 µM | GI50 [11]: > 100 µM (inactive) | GI50 [12]: > 100 µM (inactive) | GI50 [13]: > 100 µM (inactive) | GI50 [14]: > 100 µM (inactive) | GI50 [15]: > 100 µM (inactive) | GI50 [16]: > 100 µM (inactive) | GI50 [49]: > 100 µM (inactive) | GI50 [17]: > 100 µM (inactive) | GI50 [18]: > 100 µM (inactive) | GI50 [19]: > 100 µM (inactive) | GI50 [20]: > 100 µM (inactive) | GI50 [21]: > 100 µM (inactive) | GI50 [22]: > 100 µM (inactive) | GI50 [23]: > 100 µM (inactive) | GI50 [25]: > 100 µM (inactive) | GI50 [26]: > 100 µM (inactive) | GI50 [50]: 78.9 µM (inactive) | GI50 [27]: > 100 µM (inactive) | GI50 [28]: > 100 µM (inactive) | GI50 [30]: > 100 µM (inactive) | GI50 [31]: > 100 µM (inactive) | GI50 [32]: > 100 µM (inactive) | GI50 [33]: > 100 µM (inactive) | GI50 [34]: > 100 µM (inactive) | GI50 [35]: > 100 µM (inactive) | GI50 [36]: > 100 µM (inactive) | GI50 [37]: > 100 µM (inactive) | GI50 [38]: > 100 µM (inactive) | GI50 [51]: > 100 µM (inactive) | GI50 [39]: > 100 µM (inactive) | GI50 [40]: > 100 µM (inactive) | GI50 [52]: > 100 µM (inactive) | GI50 [41]: > 100 µM (inactive) | GI50 [42]: > 100 µM (inactive) | GI50 [53]: > 100 µM (inactive) | GI50 [43]: > 100 µM (inactive) | GI50 [54]: > 100 µM (inactive) | GI50 [55]: > 100 µM (inactive) | GI50 [45]: > 100 µM (inactive) | GI50 [56]: > 100 µM (inactive) | GI50 [57]: > 100 µM (inactive) | GI50 [46]: > 100 µM (inactive) | GI50 [47]: > 100 µM (inactive)

NC(CCSC(F)F)C(=O)O (stereo unspecified)
GI50 [1]: > 100 µM (inactive) | GI50 [48]: > 100 µM (inactive) | GI50 [2]: 92.3 µM (inactive) | GI50 [3]: > 100 µM (inactive) | GI50 [5]: > 100 µM (inactive) | GI50 [6]: > 100 µM (inactive) | GI50 [7]: > 100 µM (inactive) | GI50 [8]: > 100 µM (inactive) | GI50 [9]: > 100 µM (inactive) | GI50 [11]: > 100 µM (inactive) | GI50 [12]: > 100 µM (inactive) | GI50 [13]: > 100 µM (inactive) | GI50 [14]: > 100 µM (inactive) | GI50 [15]: > 100 µM (inactive) | GI50 [16]: > 100 µM (inactive) | GI50 [49]: > 100 µM (inactive) | GI50 [18]: > 100 µM (inactive) | GI50 [19]: > 100 µM (inactive) | GI50 [20]: > 100 µM (inactive) | GI50 [21]: > 100 µM (inactive) | GI50 [22]: > 100 µM (inactive) | GI50 [23]: > 100 µM (inactive) | GI50 [24]: > 100 µM (inactive) | GI50 [25]: > 100 µM (inactive) | GI50 [26]: > 100 µM (inactive) | GI50 [50]: > 100 µM (inactive) | GI50 [27]: > 100 µM (inactive) | GI50 [28]: > 100 µM (inactive) | GI50 [29]: > 100 µM (inactive) | GI50 [30]: > 100 µM (inactive) | GI50 [31]: > 100 µM (inactive) | GI50 [32]: > 100 µM (inactive) | GI50 [33]: > 100 µM (inactive) | GI50 [34]: > 100 µM (inactive) | GI50 [36]: > 100 µM (inactive) | GI50 [37]: > 100 µM (inactive) | GI50 [38]: > 100 µM (inactive) | GI50 [51]: > 100 µM (inactive) | GI50 [39]: > 100 µM (inactive) | GI50 [40]: > 100 µM (inactive) | GI50 [52]: > 100 µM (inactive) | GI50 [41]: > 100 µM (inactive) | GI50 [42]: > 100 µM (inactive) | GI50 [53]: > 100 µM (inactive) | GI50 [43]: > 100 µM (inactive) | GI50 [54]: > 100 µM (inactive) | GI50 [55]: > 100 µM (inactive) | GI50 [45]: > 100 µM (inactive) | GI50 [56]: 65.3 µM (inactive) | GI50 [57]: > 100 µM (inactive) | GI50 [46]: > 100 µM (inactive) | GI50 [47]: > 100 µM (inactive)
